Measurements reported in article PMC9233739 (Journal of medicinal chemistry, 2016).

How the values were obtained:
P. berghei sporozoites = format: cell-based; conditions: for LBI (TM90-C2B/Pb): liver blood index LBI = TM90-C2B/Pb; for LBI (W2/Pb): liver blood index LBI = W2/Pb
J774 cell lines = test: cytotoxicity in J774 cells, 96 well plate format; format: cell-based; conditions: Mus musculus, J774, read-out: EC50 J774 (internal controls)
P. falciparum TM90-C2B = test: microbe, parasite or virus in culture; format: cell-based; conditions: Plasmodium falciparum, TM90, read-out: EC50 TM90-C2B
[1] = tested on: P. berghei / P. cynomolgi infections; conditions: cited from earlier work
[2] = tested on: Plasmodium berghei-GFP parasites; test: modified Thompson test in mice; conditions: 10 mg/kg oral on days 3, 4, 5 in HEC/Tween; vs untreated control animals

For `COC(=O)c1c[nH]c2ccc(OC)cc2c1=O` [Compound 6o], the “LBI (TM90-C2B/Pb)” value (P. berghei sporozoites) was over 134.
With `COC(=O)c1c[nH]c2cc(F)ccc2c1=O` [Compound 6n] the “LBI (TM90-C2B/Pb)” value (P. berghei sporozoites) was under 3.95 and the “LBI (W2/Pb)” value (P. berghei sporozoites) was under 0.262.
With `CCCCc1ccc2[nH]ccc(=O)c2c1` [Compound 8c] the “LBI (TM90-C2B/Pb)” value (P. berghei sporozoites) was over 31.4.
For `CCN(CC)CCCC(C)Nc1ccnc2cc(Cl)ccc12` (stereo not shown) [CQ, Chloroquine], the EC50 (J774 cell lines) was 47.2 µM.
For `O=c1cc[nH]c2cc(OCCOc3ccccc3)ccc12` [Compound 8a], the “LBI (TM90-C2B/Pb)” value (P. berghei sporozoites) was under 21.7 and the “LBI (W2/Pb)” value (P. berghei sporozoites) was under 16.8.
Work on `O=C1C(O)=C([C@H]2CC[C@H](c3ccc(Cl)cc3)CC2)C(=O)c2ccccc21` [ATO, atovaquone] yielded an EC50 (P. falciparum TM90-C2B) of 18.4 nM and an EC50 (J774 cell lines) of 23.8 µM.
With `COC(=O)c1c[nH]c2cc(OCCCc3ccccc3)ccc2c1=O` [Compound 6j] the “LBI (TM90-C2B/Pb)” value (P. berghei sporozoites) was over 149.
With `COC(=O)c1c[nH]c2ccc(-c3ccccc3)cc2c1=O` [Compound 6u] the “LBI (TM90-C2B/Pb)” value (P. berghei sporozoites) was under 40.1 and the “LBI (W2/Pb)” value (P. berghei sporozoites) was under 11.7.
In the case of `CCCCCc1cc2c(=O)c(C(=O)OC)c[nH]c2cc1OCCOc1ccccc1` [Compound 6y], the “LBI (TM90-C2B/Pb)” value (P. berghei sporozoites) is reported as over 123 and the “LBI (W2/Pb)” value (P. berghei sporozoites) is reported as over 0.33.
For `CCCc1cc2c(=O)c(C(=O)OC)c[nH]c2cc1OCCOc1ccccc1` [Compound 6x], the “LBI (TM90-C2B/Pb)” value (P. berghei sporozoites) was over 707 and the “LBI (W2/Pb)” value (P. berghei sporozoites) was over 2.62.
In the case of `CCCCc1cc2c(=O)c(C(=O)OC)c[nH]c2cc1OCCOc1ccccc1` [Compound 6b], the “dose producing radical cures” value [1] is listed as 15 mg/kg and the “Inhibition (%) Day 6 PE” value [2] is listed as under 1%.
In the case of `C[C@H]1[C@@H](O)O[C@@H]2O[C@@]3(C)CC[C@H]4[C@H](C)CC[C@@H]1[C@@]24OO3` [DHA, dihydroartemisinin], the EC50 (J774 cell lines) is reported as 1.53 µM.
